Results on seven molecules are retold here after patent publication US10201586B2 (dated 2019).

Assay [1] deals with T1, TFPI (Homo sapiens, UniProt P10646). Nature of the assay: IC50 [nm].
For assay [2], the target named is T2, Tissue Factor Pathway Inhibitor (TFPI) (Homo sapiens, UniProt P10646). Kind of assay: IC50 ELISA | IC50 [nM]. In general terms: In an ELISA, binding on a coated surface is turned into a signal by an enzyme label.
The target in assay [3] is recombinant human full length TFPI (Homo sapiens, UniProt P10646). Kind of assay: Progression curve | EC50 (µM).
The target in assay [4] is T2, Tissue Factor Pathway Inhibitor (TFPI). Kind of assay: IC50 ELISA | IC50 [nM]. This is another data set of the same source.
In assay [5] the target is T1, TFPI. Nature of the assay: IC50 Mean (nM].

Read-outs that look alike come from different tables or passages of the source. Where a SMILES comes first, the peptide text is derived from it. Bridges are numbered along the chain shown (N, C = ends). [ ]: non-standard residue; d: D form. Aib = CC(C)(N)C(=O)O; Sar = CNCC(=O)O

T2 sequence (P10646 29-304 limits assumed): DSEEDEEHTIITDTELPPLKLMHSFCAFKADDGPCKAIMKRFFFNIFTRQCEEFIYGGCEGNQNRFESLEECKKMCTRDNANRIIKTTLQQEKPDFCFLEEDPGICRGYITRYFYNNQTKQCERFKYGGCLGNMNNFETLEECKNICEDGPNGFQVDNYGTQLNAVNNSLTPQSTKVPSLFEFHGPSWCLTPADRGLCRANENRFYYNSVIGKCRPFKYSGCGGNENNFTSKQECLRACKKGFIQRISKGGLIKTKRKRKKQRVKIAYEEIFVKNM
T1 sequence (P10646 29-304 limits assumed): as above
Sequence of recombinant human full length TFPI (P10646 29-304 limits assumed): as above

Broadly, the IC50 is the concentration at which inhibition is half-maximal. Higher therefore signals weaker potency in that assay. `CSCC[C@@H]1NC(=O)CNC(=O)[C@@H](NC(=O)[C@H](Cc2ccccc2)NC(=O)[C@H](Cc2c[nH]c3ccccc23)NC(=O)[C@H](CCCCN)NC(=O)[C@H](Cc2ccc(O)cc2)NC(=O)[C@H](CCCNC(=N)N)NC(=O)[C@H](CO)NC(=O)[C@H](C)NC(=O)CNC(=O)[C@H](CO)NC(C)=O)CSSC[C@@H](C(=O)N[C@H](C(=O)N[C@@H](Cc2c[nH]c3ccccc23)C(=O)N[C@H](C(=O)N[C@@H](CCCCN)C(N)=O)C(C)C)C(C)C)NC(=O)[C@H](CO)NC(=O)[C@H](CCSC)NC(=O)[C@H]([C@@H](C)O)NC(=O)CNC(=O)[C@H](CCCCN)NC(=O)[C@H](CCSC)NC(=O)[C@H](CC(=O)O)NC(=O)[C@H](CCCNC(=N)N)NC1=O` [JBT0320 | 1103] (Ac-SGASRYKWFCGMRDMKGTMSCVWVK-NH2; disulfide 10-21) showed an IC50 against TFPI [1] of 977 nM.

As for `CSCC[C@@H]1NC(=O)CNC(=O)[C@@H](NC(=O)[C@H](Cc2ccccc2)NC(=O)[C@H](Cc2c[nH]c3ccccc23)NC(=O)[C@H](CCCCN)NC(C)=O)CSSC[C@@H](C(=O)N[C@H](C(=O)N[C@@H](Cc2c[nH]c3ccccc23)C(=O)N[C@H](C(=O)N[C@@H](CCCCN)C(=O)N[C@@H](Cc2ccccc2)C(=O)N[C@@H](CCCNC(=N)N)C(=O)N[C@@H](Cc2ccc(O)cc2)C(=O)N[C@@H](CC(=O)O)C(=O)N[C@H](C(=O)N[C@@H](CO)C(N)=O)[C@@H](C)O)C(C)C)C(C)C)NC(=O)[C@H](CO)NC(=O)[C@H](CCSC)NC(=O)[C@H]([C@@H](C)O)NC(=O)CNC(=O)[C@H](CCCCN)NC(=O)[C@H](CCSC)NC(=O)[C@H](CC(=O)O)NC(=O)[C@H](CCCNC(=N)N)NC1=O` [JBT0324 | 1155] (Ac-KWFCGMRDMKGTMSCVWVKFRYDTS-NH2; disulfide 4-15), the IC50 on TFPI [1] was found to be 1930 nM.

Consider `CC(=O)N[C@@H](Cc1ccccc1)C(=O)N[C@@H](CCC(N)=O)C(=O)N[C@@H](CO)C(=O)N[C@@H](CCCCN)C(=O)N(C)CC(=O)N[C@@H](CC(N)=O)C(=O)N[C@H](C(=O)N[C@@H](Cc1ccccc1)C(=O)N[C@H](C(=O)N[C@H](C(=O)NCC(=O)N[C@@H](Cc1ccc(O)cc1)C(=O)N[C@@H](Cc1ccccc1)C(=O)N[C@@H](CCC(=O)O)C(=O)N[C@@H](CCCNC(=N)N)C(=O)N[C@@H](CC(C)C)C(=O)NC(C)(C)C(=O)N[C@@H](C)C(=O)N[C@@H](CCCCN)C(=O)N[C@@H](CC(C)C)C(N)=O)[C@@H](C)O)C(C)C)C(C)C` [JBT1585 | 4018] (Ac-FQSK[Sar]NVFVTGYFERL[Aib]AKL-NH2), for which the IC50 in assay [2] amounted to 15.1 nM.

“Ac-FQSK-dtc-NVHVDGYFERL-Aib-AKL-NH2 [JBT2285 | 4047]” gave a half-inhibitory concentration (IC50) in assay [2] of 3.44 nM.

As a reminder, the EC50 is the concentration at which the effect is half-maximal. For the molecule “Ac-FQSKp-C(ME-400MA)-VHVDGYFERL-Aib-AKL-NH2 [JBT2402 | 4121]”, the EC50 in assay [3] turned out to be 2.6 nM. Moreover, the IC50 in assay [4] worked out at 20.5 nM.

With “Ac-FQSKpNVHV-C(ME-400MA)-GYFERL-Aib-AKL-NH2 [JBT2403 | 4122]”, in assay [3], the half-maximal effective concentration (EC50) amounted to 15.3 nM. Further, the IC50 in assay [4] stood at 22.9 nM.

Turning to “Ac-K(FAM)KSGVGRLQVAFQSKKNVFVFGYFERLRAKLTSKK-NH2 [JBT0291 | 15]”, the midpoint of inhibition against TFPI [5], the IC50, lay at 46 nM.
